Results as given in patent publication US20260035360A1, “INHIBITORS OF MYC AND USES THEREOF” (Northwestern University, priority 2022, published 2026).
Read-outs that look alike come from different tables or passages of the source.

Assays:
Type in all cases: cell-based
ATF4 = ATF4 protein level in PC3 cells by western blot, 24 hr; conditions: Homo sapiens, PC-3, PC3, 24 h, Actin control, read-out: Relative ATF4 protein at 10 μM (fold change, PC3 24 h)
Procedure: (§1) Table 2. Biological data of selected compounds. For IC50 determination. PC3 and PC12 cells were treated with increasing concentrations of the indicated compounds for 72 hrs and cell viability assessed using CellTitreGlo Assay (Promega). For MYC and ATF4 protein level determination. PC3 cells were treated with the indicated compounds for 24 hr sand cell lysates processed for western blot with MYC and ATF4 antibodies using Actin as a control. Quantification analyses were performed by Biorad ChemiDoc Imager and Bio-Rad Image Lab software.

PC3 cells = assay: PC3 cell viability, CellTitreGlo Assay, 72 hrs; conditions: Homo sapiens, PC-3
Procedure: as §1

MYC = target: T1, MYC (Homo sapiens, UniProt P01106); assay: MYC protein level in PC3 cells by western blot, 24 hr; conditions: Actin control, read-out: Relative MYC protein at 10 μM (%, PC3 24 h)
T1 construct: endogenous in cells; host or cells: PC3 cells
T1 sequence (P01106 whole entry): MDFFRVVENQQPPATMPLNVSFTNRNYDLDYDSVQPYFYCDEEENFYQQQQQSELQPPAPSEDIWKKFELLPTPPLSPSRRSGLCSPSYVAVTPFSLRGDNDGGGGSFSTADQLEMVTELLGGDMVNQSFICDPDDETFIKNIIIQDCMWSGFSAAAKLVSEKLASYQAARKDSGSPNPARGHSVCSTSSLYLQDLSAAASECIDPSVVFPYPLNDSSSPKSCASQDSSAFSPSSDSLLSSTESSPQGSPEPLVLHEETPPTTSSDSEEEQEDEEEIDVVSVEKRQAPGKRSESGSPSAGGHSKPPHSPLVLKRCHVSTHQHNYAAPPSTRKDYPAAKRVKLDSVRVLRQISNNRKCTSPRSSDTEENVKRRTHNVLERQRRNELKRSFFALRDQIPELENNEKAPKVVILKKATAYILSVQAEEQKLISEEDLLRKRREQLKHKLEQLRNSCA
Procedure: as §1

Row | SMILES | fold induction at 10 µM (ATF4) | IC50 (PC3 cells) [µM] | remaining activity at 10 µM (MYC; PC-3, 24 h, PC3, 24 h) [%] | remaining activity at 10 µM (MYC; PC-3, PC3, 24 h) [%]
1 | C[C@@H](Oc1ccc(-c2cc(C(F)(F)F)nn2C)c(O)c1-c1ccc(Cl)c(C(F)(F)F)c1)c1ccccc1 [NUCC-0226433] | 10.6 | 4 | 35 | 
2 | Cn1nc(C(F)(F)F)cc1-c1ccc(CCc2ccc(Cl)cc2)c(-c2ccc(Cl)c(C(F)(F)F)c2)c1O [NUCC-0226574] | 12 | 3.59 | 43.7 | 
3 | Cn1nc(C(F)(F)F)cc1-c1ccc(OCc2ccccc2)c(-c2ccc(Cl)c(C(F)(F)F)c2)c1O [NUCC-0226260] | 4.6 |  |  | 41.5
4 | CC(C)Cc1ccc(COc2ccc(-c3cc(C(F)(F)F)nn3C)c(O)c2-c2ccc(Cl)c(C(F)(F)F)c2)cc1 [NUCC-0226305] | 2.9 | 8.4 | 52.4 | 
5 | C[C@H](Oc1ccc(-c2cc(C(F)(F)F)nn2C)c(O)c1-c1ccc(Cl)c(C(F)(F)F)c1)c1ccccc1 [NUCC-0226434] | 9.4 | 4.3 | 20 | 
6 | O=c1oc2c(-c3ccc(Cl)c(C(F)(F)F)c3)c(O)ccc2c2cc(C(F)(F)F)nn12 [NUCC-0226261] | 4.4 |  | 93.1 | 
7 | Cn1nc(C(F)(F)F)cc1-c1ccc(N(CCCOCCC(=O)NCCOCCNc2cccc3c2C(=O)N(C2CCC(=O)NC2=O)C3=O)C(=O)c2ccc(Cl)c(C(F)(F)F)c2)cc1O (centres unmarked) [NUCC-0226288] | 6.6 | 6 | 54.2 | 
8 | Cn1nncc1-c1ccc(OCc2ccc(Cl)cc2)c(-c2ccc(Cl)c(C(F)(F)F)c2)c1O [NUCC-0226659] | 1.5 |  | 90.3 | 
9 | Cc1ncsc1-c1ccc(CNC(=O)[C@@H]2C[C@@H](O)CN2C(=O)[C@@H](NC(=O)C2(F)CC2)C(C)(C)C)c(OCCOCCOCCOCCCCCOc2ccc(-c3cc(C(F)(F)F)nn3C)c(O)c2-c2ccc(Cl)c(C(F)(F)F)c2)c1 [NUCC-0226220] |  |  | 90.1 | 
10 | Cc1ncsc1-c1ccc(CNC(=O)[C@@H]2C[C@@H](O)CN2C(=O)[C@@H](NCCOCCOCCCCCOc2ccc(-c3cc(C(F)(F)F)nn3C)c(O)c2-c2ccc(Cl)c(C(F)(F)F)c2)C(C)(C)C)cc1 [NUCC-0226265] | 2.2 |  | 115 | 
11 | Cn1nc(C(F)(F)F)cc1-c1ccc(O)c(-c2ccc(Cl)c(C(F)(F)F)c2)c1O [NUCC-0226259] | 3.3 |  | 52 | 
12 | Cn1nc(C(F)(F)F)cc1-c1ccc(N(CCCOCCC(=O)NCCCCCCOc2cccc3c2C(=O)N(C2CCC(=O)NC2=O)C3=O)C(=O)c2ccc(Cl)c(C(F)(F)F)c2)cc1O (centres unmarked) [NUCC-0226229] | 16.4 | 15.6 | 56.4 | 
13 | Cn1nc(C(F)(F)F)cc1-c1ccc(OCCCOCCC(=O)NCCOCCOCCNc2cccc3c2C(=O)N(C2CCC(=O)NC2=O)C3=O)c(-c2ccc(Cl)c(C(F)(F)F)c2)c1O (centres unmarked) [NUCC-0226304] | 4.6 |  | 170 | 
14 | CC(C)Cc1ccc(CN(C(=O)c2ccc(Cl)c(C(F)(F)F)c2)c2ccc(-c3cc(C(F)(F)F)nn3C)c(O)c2)cc1 [NUCC-0226280] | 10.3 |  | 45.2 | 
15 | Cn1nc(C(F)(F)F)cc1-c1ccc(NC(c2ccccc2)c2ccccc2)c(-c2ccc(Cl)c(C(F)(F)F)c2)c1O [NUCC-0226502] | 1.4 | 14.1 | 122 | 
16 | CC(=O)Oc1c(-c2cc(C(F)(F)F)nn2C)ccc(OCc2ccc(OCCOCCOS(=O)(=O)c3ccc(C)cc3)cc2)c1-c1ccc(Cl)c(C(F)(F)F)c1 [NUCC-0226263] | 0.7 |  | 113 | 
17 | Cn1nc(C(F)(F)F)cc1-c1ccc(N(CCCOCCC(=O)NCCOCCOCCNc2ccc3c(c2)C(=O)N(C2CCC(=O)NC2=O)C3=O)C(=O)c2ccc(Cl)c(C(F)(F)F)c2)cc1O (centres unmarked) [NUCC-0226293] | 3.6 | 4.7 | 18.4 | 
18 | CC(=O)N[C@@H](C(=O)N1C[C@@H](O)C[C@@H]1C(=O)NCc1ccc(-c2scnc2C)cc1OCCOCCNC(=O)CCOCCCN(C(=O)c1ccc(Cl)c(C(F)(F)F)c1)c1ccc(-c2cc(C(F)(F)F)nn2C)c(O)c1)C(C)(C)C [NUCC-0226290] | 2.9 | 5.1 | 27.4 | 
19 | COc1ccc(-c2c(Cl)c(C(F)(F)F)nn2C)c(O)c1-c1ccc(Cl)c(C(F)(F)F)c1 [NUCC-0226501] | 9.3 | 4.6 | 59.4 | 
